Legend:
neuronal cells = experiment: Ionomycin (calcium ionophore) neurotoxicity; format: cell-based; details: 10 to 60 μM tested
Procedure: In order to determine whether the above result is obtained by the chelation of Ca^2+ ions other than the drug #28, protective effects of the drug #28 (10 to 60 μM) after treatment using ionomycin, which is a calcium ion permeable carrier (‘calcium ionophore’) directly increasing the intracellular calcium concentration, were under observation. Further, using a Fura-2 dye that is combined with calcium to represent fluorescence, it was monitored whether the drug #28 is combined with calcium on a test tube and represents chelating effects.

[1] = system: cultured cerebral cortex neurons of a mouse; experiment: Zinc neurotoxicity inhibition, LDH assay (tertiary screening); format: cell-based; details: 300 μM zinc 10 min
Procedure: Cerebral cortex neurons of a mouse used in the present invention were extracted from the mouse embryos brain and cultured, followed by further culturing the same using a Dulbecco's modified Eagle's medium (DMEM, Gibco, Grand Island, N.Y., US) containing 5% fetal bovine serum (FBS) and 5% horse serum (HS) under conditions of 95% humidity, 5% CO2 and 37° C. temperature. For activation and differentiation of the above cells, these cells were proliferated at a density of 2×10^4 cells in 24-well tissue culture plate. Further, prior to treatment using zinc and the compounds, the cells were incubated in MEM medium without FBS and HS.
More particularly, the cultured cerebral cortex neurons of a mouse were briefly exposed to 300 μM zinc for 10 minutes, and then treated with the selected 40 drugs, respectively, in order to observe neuro-protective effects. A degree of neuronal death of these cells was quantified by LDH assay wherein effects of individual drugs were averaged to result in a numerical value, and separate experiments were performed on each of the selected drugs 4 times, respectively (FIG. 4).

[2] = Free zinc concentration by pZn meter (test tube); format: physicochemical; details: 2.5 to 20 μM drug, ZnAF 2.5 μM
Procedure: In order to measure free zinc concentration levels, the drug #28 of the present invention was used for treatment in different concentrations (2.5 to 20 μM) along with ZnAF (2.5 μM) as a zinc fluorescent material on a test tube. On the other hand, a control group uses clioquinol (1 to 5 μM) well known as a very stronger zinc chelator. A free zinc concentration was measured by a pZn meter (NeuroBioTex Inc.).

[3] = system: cultured cerebral cortex neurons of a mouse; experiment: Intracellular free zinc after zinc exposure, FluoZin-3 (confocal microscope, fluorometer); format: cell-based
Procedure: In order to monitor whether an actual free zinc concentration in neuronal cells is increased or not, the cultured cerebral cortex neurons of a mouse were pre-treated with a FluoZin-3 staining material, exposed to high concentration zinc, and then, treated with 4C01 (20 μM), 4C07 (20 μM) and the drug #28 (20, 50 μM). Thereafter, images of these treated neurons were observed using a confocal laser fluorescence microscope, and a fluorescent size was quantitatively measured using a fluorescence photometer (fluorometer).

[4] = system: male Sprague-Dawley (SD) rat; experiment: Permanent middle cerebral artery occlusion (MCAO) stroke model; format: in vivo
Procedure: More particularly, a permanent middle cerebral artery (MCA) occlusion model was prepared using a male Sprague-Dawley (SD) rat aged 8 to 9 weeks. At time points of 30 minutes before MCAO and 10 minutes after the same, cerebral blood flow (CBF) was measured by a laser-doppler flowmeter and the measured results are shown in Table 3 below. Then, 15 minutes after middle cerebral artery occlusion (MCAO), the compound #28, which is finally selected as an AMPK inhibitor (75 ng/3 μl), or a vehicle (10% DMSO) was provided to an area of 0.8 mm on a back and 1.2 mm on a lateral of bregma at a depth of 3.8 mm through intra-cerebroventricular injection. Thereafter, a degree of lack of movement (‘motor deficit’) was evaluated in the rat, in particular, standards for evaluation are classified as follows (Longa et al., 1989): no deficiency (normal); failure of extending the front foots when vertically stopping (mild); rotation on the opposite side (moderate); and rotation loss (loss of circling) or loss of reflex motion (serious deficit). After induction of ischemia in the rat model, the brain was obtained at the time of lapse of 24 hours, followed by determining a level of cerebral infraction by staining the brain with 2% 2,3,5-triphenyl tetrazolium chloride (TTC).

[5] = system: cultured cerebral cortex neurons of a mouse; experiment: Inhibition of a variety of neurotoxicity, LDH assay (quaternary screening); format: cell-based; details: 20 μM, NMDA, FeCl2, H2O2, TPEN, staurosporine, etoposide toxicity
Procedure: More particularly, the cultured cerebral cortex neurons of a mouse were treated with 50 μM NMDA, 50 μM FeCl2, 100 μM H2O2, 2 μM TPEN (N,N,N′,N′-tetrakis (2-pyridylmethyl) ethylenediamine, Sigma), 500 nM staurosporine (Abcam) and 10 μM etoposide (Sigma), respectively, to induce neurotoxicity, followed by treatment using the selected 7 compounds at a concentration of 20 μM in order to observe neuro-protective effects. A degree of apoptosis of these cells was quantified by LDH assay. The neurotoxicity models used above include, for example, excitotoxicity, oxidative damage and apoptosis that are considered as a cause mechanism of stroke, in particular, the excitotoxicity model was NMDA, the oxidative damage model was iron toxicity and H2O2 toxicity models, and the apoptosis model was TPEN, staurosporine and etoposide toxicity models. The TPEN is a zinc chelator which is well known to cause typical apoptosis in neuronal cells, staurosporine is an enzyme inhibitor (kinase inhibitor) which is also well known as one of typical apoptosis inductive materials, and etoposide is a drug known to cause apoptosis due to DNA damage.

[6] = Free zinc concentration by fluorescent dye (Newport green DCF, FluoZin-3); format: physicochemical
Procedure: Further, in conjunction with clioquinol (20 μM) or the drug #28 (20 μM), a zinc fluorescent dye, i.e., Newport green DCF (0.5 μM, Kd(Zn)=1 uM) or FluoZin-3 (0.5 μM, Kd(Zn)=15 nM) was used for measurement of free zinc concentration.

[7] = system: cultured cerebral cortex neurons of a mouse; experiment: Zinc ion permeable carrier test, ZinPyr-1; format: cell-based
Procedure: ZinPyr-1 is a fluorescent dye which has a lower Kd value than that of FluoZin-3 and is used to measure a change in a zinc concentration even at a lower concentration. Whether the drug #28 of the present invention can act as an ion permeable carrier was under observation using ZinPyr-1. More particularly, the cultured cerebral cortex neurons of a mouse were treated with ZinPyr-1 then treated with the drug #28 (0.05 μM) and clioquinol (0.5 μM) in a typically used neuronal cell culture medium, so as to determine a change in zinc ion concentrations in the neurons. Also, a non-treatment group was used as a control group.
Therefore, after adding a further 0.5 μM concentration of zinc to the cell culture medium, a change in zinc concentration in the cells was under observation.

Compound: O=C1N=C(Nc2cccc(O)c2)S/C1=C\c1c[nH]c2ccccc12 [compound 28, (Z)-5-((1H-indol-3-yl)methylene)-2-((3-hydroxyphenyl)amino)thiazol-4(5H)-one]
- concentration exhibiting toxicity protective effects against ionomycin (neuronal cells): more than 40 μM
- inhibition of zinc toxicity [1]: significantly inhibit zinc toxicity
- free zinc concentration [2]: reduced in a concentration-dependent manner
- increase in intracellular free zinc, fluorescence magnitude ([3]; 4C01, 4C07 20 μM, #28 20, 50 μM, fluorometer): inhibit an increase in intracellular free zinc to the similar level
- increase in free zinc in the neurons ([3]; high concentration zinc, 20, 50 μM, confocal microscope): significantly reduced
- brain damage due to permanent MCAO ([4]; 75 ng/3 μl intra-cerebroventricular 15 min after MCAO, TTC staining at 24 hours): significantly inhibit brain damage
- Weight reduction ([4]; MCAO rat, 75 ng/3 μl intra-cerebroventricular): 43.8 ± 6.1 g
- inhibitory effects on neurotoxicity [5]: inhibitory effects on any toxicity
- zinc affinity compared to clioquinol [6]: considerably low compared to clioquinol
- free zinc concentration, low concentration zinc ([6]; 20 μM, FluoZin-3 (FIG. 13)): did not show remarkable effects
- free zinc concentration, high concentration zinc ([6]; 20 μM, Newport green DCF (FIG. 12)): exhibited effects of decreasing the free zinc concentration
- free zinc ions ([6]; 20 μM, Newport green DCF or FluoZin-3): reduce free zinc ions
- increase of zinc in neurons, general culture conditions ([7]; #28 0.05 μM, clioquinol 0.5 μM): not clearly demonstrated
- increase of zinc in neurons, zinc-supplemented medium ([7]; further 0.5 μM zinc added to the cell culture medium): significant increase in zinc
